Experimental data reported in patent US10421765B2, “Tetrahydropyrido[4,3-d]pyrimidine inhibitors of ATR kinase” (Board of Regents, The University of Texas System, priority 2017, dated 2019).
Like-named read-outs stand apart in the source and are kept apart here.

Tests used:
ATR/ATRIP complex = ATR/ATRIP complex (Homo sapiens (Human), UniProt Q13535); experiment: ATR/ATRIP enzymatic assay (Caliper-based); type: biochemical; conditions: FAM-labeled RAD17 peptide, ATP
Procedure: Human full-length FLAG-TEV-ATR and His6-ATRIP were co-expressed in HEK293 cells. The cell pellet (20 g) was harvested and lysed in 100 mL of lysis buffer (20 mM Tris-HCl pH 7.5 at room temperature, 137 mM NaCl, 10% glycerol, 1 mM DTT, 1% (v/v) Tween-20, 0.1% (v/v) NP-40, complete protease inhibitor cocktail tablets, phosphatase inhibitor cocktail tablets, 2 mM MgCl2, 0.2 mM EDTA, and 1 mM ATP). After sonication and centrifugation, the supernatant was incubated at 4° C. for 3 hours with 1 mL of anti-FLAG resin (Sigma catalog #A2220) that had been pre-equilibrated in buffer A (20 mM Tris-HCl pH 7.5 at room temperature, 137 mM NaCl, 10% glycerol, 1 mM DTT, 2 mM MgCl2, and 0.2 mM EDTA). The sample was loaded into a column, and then washed with buffer A three times. Protein was subsequently eluted with 2 ml of buffer B (buffer A+200 μg/ml 3×FLAG peptide).
The ability of new chemical matter to inhibit the ATR catalytic activity in this ATR/ATRIP complex was assessed using a Caliper-based assay. A 2x enzyme solution (i.e., 4 nM enzyme) was prepared using 1× Kinase Reaction Buffer (25 mM HEPES pH 8, 0.0055% Brij-35, 10 mM MnCl2, and 1 mM DTT). A 2x peptide solution was then prepared consisting of 10 uM FAM-labeled RAD17 peptide (GL Biochem, catalog #524315) in 1× Kinase Reaction Buffer supplemented with 2 μM ATP. 10 μL of the 2× enzyme solution was transferred to an assay plate containing 60 nL of test compound (from a 3× serial dilution) in 100% DMSO. Following a 30 minute incubation at 28° C., 10 μL of the 2× peptide solution was then transferred to the same assay plate. The reaction was allowed to incubate at 28° C. for 6 hours. After adding […] of stop buffer (100 mM HEPES pH 7.5, 0.015% Brij-35, 0.2% Coating-3 Reagent (PerkinElmer, catalog #PN760050), and 50 mM EDTA), data were collected on a Caliper instrument. Conversion values were converted to inhibition values via the following equation: % inhibition=(max−conversion)/(max−min)*100, whereby “max” corresponds to the DMSO control and “min” corresponds to the low control. IC50 values were calculated using the following equation in XLFit: Y=Bottom+(Top−Bottom)/1+(IC50/X)^HillSlope).

[1] = system: ATR-driven phosphorylation of Chk1 kinase at Serine 345 in HT-29 colorectal adenocarcinoma cells; experiment: pCHK1 cellular assay (CHK1 p-Ser345 AlphaScreen SureFire); type: cell-based; conditions: 4-nitroquinoline N-oxide 12 uM, read-out: Cell IC50 (pCHK1 IC50 values)
Procedure: Inhibitors of ATR kinase are effective at inhibiting the ATR-driven phosphorylation of the downstream target Chk1 kinase at Serine 345, following the addition of 4-nitroquinoline N-oxide, a chemical used to induce DNA damage. Cellular IC50 for the inhibitors of ATR described herein were measured in HT-29 colorectal adenocarcinoma cells. HT-29 cells were routinely maintained in McCoy's 5A media (ATCC Catalog #30-2007) supplemented with 10% fetal bovine serum (Sigma Catalog #F2442) and 1× Penicillin-Streptomycin (Gibco Catalog #15140-122) using a humidified incubator (37° C., 5% CO2, and ambient O2).
In preparation for the CHK1 (p-Ser345) ALPHASCREEN® SUREFIRE® assay, cells were harvested and resuspended in McCoy's 5A media supplemented with 10% fetal bovine serum and 1× Penicillin-Streptomycin. Cells were seeded onto a 384-well black CELLSTAR® Tissue Culture Plate (VWR Catalog #89085-314) at a density of 13,000 cells/well in a volume of 40 uL. The microplate was incubated overnight (approximately 20 hours) at 37° C. with 5% CO2 and ambient O2. Stock solutions of the test compounds were prepared in 100% DMSO (Sigma, Catalog #D2650) and serially diluted 1:3 using 100% DMSO. Compounds were additionally diluted 1:33 in culture medium, and 10 ul/well were transferred to the tissue culture plate. Following the compound addition the microplate was incubated at 37° C. for 90 minutes. 10 uL of 4-nitroquinoline N-oxide (Sigma Aldrich Catalog #N8141-1G) diluted in media (final concentration 12 uM) were added to the tissue culture plate followed by a 120 minute incubation at 37° C. The cells were then washed with PBS and lysed using 10 uL/well SUREFIRE® Kit lysis buffer diluted to 1× in water (PerkinElmer Catalog #TGRCHK1S50K), with mixing on an orbital shaker at 500 rpm for 20 min at RT. Lysates were frozen at −20° C. overnight.
4 uL/well of lysate was then transferred from the tissue culture plate to a 384-well, white, low volume, PROXIPLATE™ (PerkinElmer Catalog #600828). 5 uL/well of the acceptor bead solution, prepared by diluting SUREFIRE® Kit activation buffer (PerkinElmer Catalog #TGRCHK1S50K) and ALPHASCREEN® Protein A acceptor beads (PerkinElmer Catalog #6760617R) in SUREFIRE® Kit reaction buffer (PerkinElmer Catalog #TGRCHK1S50K), were added to the lysates under subdued light and incubated at room temperature for 120 min. 2 uL/well of the donor bead solution, prepared by diluting ALPHASCREEN® Streptavidin donor beads (PerkinElmer Catalog #6760617R) in SUREFIRE® Kit dilution buffer (PerkinElmer Catalog #TGRCHK1S50K), were added under subdued light and incubated at room temperature for an addition 120 minutes. The pCHK1 ALPHASCREEN® signal was measured using an ENVISION® plate reader (PerkinElmer). IC50 values were calculated using a four-parameter logistic curve fit using Genedata Screener software. Percent of control for each compound concentration was calculated by the following formula: 100*(Compound−Min)/(Max−Min) where “Max” is the high control, DMSO, and “Min” is the low control, 5 uM ATR inhibitor.

[2] = read-out: ATR/ATRIP Enzyme IC50
[3] = Homo sapiens, HT-29, HT-29 cells

Sequence of ATR/ATRIP complex (Q13535 whole entry): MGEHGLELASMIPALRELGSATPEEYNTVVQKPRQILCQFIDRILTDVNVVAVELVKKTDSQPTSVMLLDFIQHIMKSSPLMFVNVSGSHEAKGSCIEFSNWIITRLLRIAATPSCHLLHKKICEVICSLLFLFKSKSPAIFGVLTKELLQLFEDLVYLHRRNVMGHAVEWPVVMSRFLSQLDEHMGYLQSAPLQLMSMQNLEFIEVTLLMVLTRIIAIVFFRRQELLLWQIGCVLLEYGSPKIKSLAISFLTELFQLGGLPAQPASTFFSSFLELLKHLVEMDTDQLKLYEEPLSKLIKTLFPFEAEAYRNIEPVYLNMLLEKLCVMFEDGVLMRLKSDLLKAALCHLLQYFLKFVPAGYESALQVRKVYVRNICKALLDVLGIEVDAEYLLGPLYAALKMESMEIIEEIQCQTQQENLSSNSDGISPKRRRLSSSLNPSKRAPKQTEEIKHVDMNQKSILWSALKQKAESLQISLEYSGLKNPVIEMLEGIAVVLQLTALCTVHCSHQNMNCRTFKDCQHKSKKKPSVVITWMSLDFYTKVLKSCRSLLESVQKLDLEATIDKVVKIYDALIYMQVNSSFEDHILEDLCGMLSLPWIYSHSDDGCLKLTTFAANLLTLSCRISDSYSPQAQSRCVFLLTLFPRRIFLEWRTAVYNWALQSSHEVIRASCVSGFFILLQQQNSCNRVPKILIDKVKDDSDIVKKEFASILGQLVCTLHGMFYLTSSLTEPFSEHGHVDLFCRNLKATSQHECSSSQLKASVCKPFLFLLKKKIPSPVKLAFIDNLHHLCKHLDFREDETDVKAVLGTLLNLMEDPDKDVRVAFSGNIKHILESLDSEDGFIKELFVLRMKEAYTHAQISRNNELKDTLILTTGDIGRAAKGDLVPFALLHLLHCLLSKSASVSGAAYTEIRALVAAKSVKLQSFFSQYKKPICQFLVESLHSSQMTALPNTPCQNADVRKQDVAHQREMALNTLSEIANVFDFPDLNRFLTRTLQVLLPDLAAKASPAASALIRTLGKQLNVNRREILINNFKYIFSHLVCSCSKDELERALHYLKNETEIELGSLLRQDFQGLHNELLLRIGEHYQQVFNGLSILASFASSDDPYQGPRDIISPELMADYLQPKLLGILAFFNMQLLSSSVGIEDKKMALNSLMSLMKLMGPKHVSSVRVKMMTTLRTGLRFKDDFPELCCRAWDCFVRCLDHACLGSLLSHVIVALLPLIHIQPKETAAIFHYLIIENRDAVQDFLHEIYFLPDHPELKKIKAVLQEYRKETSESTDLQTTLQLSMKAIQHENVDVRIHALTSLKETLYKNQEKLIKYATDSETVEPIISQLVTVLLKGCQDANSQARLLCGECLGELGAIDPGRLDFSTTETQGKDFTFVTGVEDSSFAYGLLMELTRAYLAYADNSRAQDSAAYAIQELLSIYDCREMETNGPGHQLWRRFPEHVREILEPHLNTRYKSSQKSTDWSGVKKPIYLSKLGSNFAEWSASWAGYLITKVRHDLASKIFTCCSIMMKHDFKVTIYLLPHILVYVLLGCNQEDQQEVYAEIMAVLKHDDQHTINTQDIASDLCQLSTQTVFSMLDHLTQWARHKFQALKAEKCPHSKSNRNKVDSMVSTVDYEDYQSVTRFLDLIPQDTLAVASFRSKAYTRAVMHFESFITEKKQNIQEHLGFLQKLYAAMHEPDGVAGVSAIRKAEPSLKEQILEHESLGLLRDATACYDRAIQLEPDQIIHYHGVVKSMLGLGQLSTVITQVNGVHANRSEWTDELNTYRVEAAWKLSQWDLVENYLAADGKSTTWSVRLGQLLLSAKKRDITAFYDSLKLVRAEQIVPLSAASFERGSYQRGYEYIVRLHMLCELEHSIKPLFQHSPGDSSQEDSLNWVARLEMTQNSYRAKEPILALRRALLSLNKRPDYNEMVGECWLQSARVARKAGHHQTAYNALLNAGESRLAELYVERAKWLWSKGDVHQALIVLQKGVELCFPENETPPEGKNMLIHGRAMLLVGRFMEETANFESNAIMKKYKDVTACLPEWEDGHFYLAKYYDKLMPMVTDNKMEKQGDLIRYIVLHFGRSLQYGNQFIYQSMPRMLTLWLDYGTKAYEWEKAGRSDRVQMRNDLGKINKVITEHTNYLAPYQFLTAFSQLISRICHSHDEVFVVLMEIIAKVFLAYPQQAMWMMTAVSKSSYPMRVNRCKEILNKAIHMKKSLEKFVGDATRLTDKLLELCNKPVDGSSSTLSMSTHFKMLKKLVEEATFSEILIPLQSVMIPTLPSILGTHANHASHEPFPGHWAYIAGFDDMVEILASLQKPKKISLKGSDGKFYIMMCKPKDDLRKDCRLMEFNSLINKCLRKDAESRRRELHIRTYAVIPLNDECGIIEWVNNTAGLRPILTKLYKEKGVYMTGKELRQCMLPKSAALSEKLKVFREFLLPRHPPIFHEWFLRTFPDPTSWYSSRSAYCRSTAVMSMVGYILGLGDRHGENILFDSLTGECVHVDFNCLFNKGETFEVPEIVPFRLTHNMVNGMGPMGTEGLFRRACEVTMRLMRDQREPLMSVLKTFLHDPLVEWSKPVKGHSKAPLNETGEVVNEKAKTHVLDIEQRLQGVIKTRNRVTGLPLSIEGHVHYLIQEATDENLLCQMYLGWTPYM
Sequence of ATR/ATRIP complex (Q8WXE1 whole entry partner): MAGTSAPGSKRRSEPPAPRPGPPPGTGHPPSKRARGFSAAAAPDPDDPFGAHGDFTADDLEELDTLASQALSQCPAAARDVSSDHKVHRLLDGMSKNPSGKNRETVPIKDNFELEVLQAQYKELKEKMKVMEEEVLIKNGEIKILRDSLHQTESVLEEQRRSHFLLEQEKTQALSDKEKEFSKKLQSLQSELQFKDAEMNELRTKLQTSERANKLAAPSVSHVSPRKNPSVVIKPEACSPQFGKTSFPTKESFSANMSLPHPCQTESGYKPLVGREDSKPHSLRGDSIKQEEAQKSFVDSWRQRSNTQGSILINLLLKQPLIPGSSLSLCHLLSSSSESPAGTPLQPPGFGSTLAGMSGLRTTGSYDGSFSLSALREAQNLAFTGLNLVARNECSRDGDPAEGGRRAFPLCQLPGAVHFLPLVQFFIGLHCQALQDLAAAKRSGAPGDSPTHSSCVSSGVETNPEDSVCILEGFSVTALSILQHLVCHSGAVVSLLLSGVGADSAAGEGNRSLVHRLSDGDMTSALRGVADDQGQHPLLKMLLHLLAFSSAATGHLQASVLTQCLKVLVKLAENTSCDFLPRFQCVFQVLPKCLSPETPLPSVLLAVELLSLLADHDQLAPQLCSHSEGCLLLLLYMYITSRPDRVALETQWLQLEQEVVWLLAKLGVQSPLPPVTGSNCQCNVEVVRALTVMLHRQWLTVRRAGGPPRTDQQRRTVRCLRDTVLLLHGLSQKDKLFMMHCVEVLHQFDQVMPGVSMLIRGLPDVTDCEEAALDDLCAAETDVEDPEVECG

| SMILES | IC50 (ATR/ATRIP complex; [2]) [nM] | IC50 [1, 3] [nM] | IC50 (ATR/ATRIP complex; estimated range, read-out: ATR/ATRIP Enzyme IC50 (estimated class)) [nM] | IC50 ([1]; HT-29 cells) [nM] |
| --- | --- | --- | --- | --- |
| C[C@@H]1Cc2ncnc(C3CCN(S(C)(=O)=O)CC3)c2CN1c1cc(C2CC2)nc2[nH]ccc12 [Example 95, (R)-6-(6-cyclopropyl-1H-pyrrolo[2,3-b]pyridin-4-yl)-7-methyl-4-(1-(methylsulfonyl)-piperidin-4-yl)-5,6,7,8-tetrahydropyrido[4,3-d]-pyrimidine] | 270 | 54 | – | – |
| C[C@@H]1Cc2ncnc([C@H]3CCCN(S(C)(=O)=O)C3)c2CN1c1ccnc2[nH]ccc12 [Example 50b, (R)-7-methyl-4-((S)-1-(methylsulfonyl)piperidin-3-yl)-6-(1H-pyrrolo[2,3-b]pyridin-4-yl)-5,6,7,8-tetrahydropyrido[4,3-d]pyrimidine] | 4790 | 579 | – | – |
| C[C@@H]1Cc2ncnc(C3CCCN(S(C)(=O)=O)C3)c2CN1c1ccnc2[nH]ccc12 (single isomer, unassigned) [Example 50a] | 1200 | 55 | – | – |
| C[C@@H]1Cc2ncnc(C3C[C@H]4CC[C@@H](C3)N4S(C)(=O)=O)c2CN1c1cc(Cl)nc2[nH]ccc12 (single isomer, unassigned) [Example 11b] | 329 | – | – | 29 |
| C[C@@H]1Cc2ncnc(C3CCN(S(C)(=O)=O)CC3)c2CN1c1cc(C#N)nc2[nH]ccc12 [Example 98, (R)-4-(7-methyl-4-(1-(methylsulfonyl)piperidin-4-yl)-7,8-dihydro-pyrido[4,3-d]pyrimidin-6(5H)-yl)-1H-pyrrolo-[2,3-b]pyridine-6-carbonitrile] | 336 | 265 | – | – |
| Cc1cc2c(N3Cc4c(ncnc4C4CCN(S(C)(=O)=O)CC4)C[C@H]3C)ccnc2[nH]1 [Example 94, (R)-7-methyl-6-(2-methyl-1H-pyrrolo[2,3-b]pyridin-4-yl)-4-(1-(methylsulfonyl)piperidin-4-yl)-5,6,7,8-tetrahydro-pyrido[4,3-d]pyrimidine] | 51 | 98 | – | – |
| C[C@@H]1Cc2ncnc(N3CC(NS(=O)(=O)C4CC4)C3)c2CN1c1ccnc2[nH]ccc12 [Example 85, (R)-N-(1-(7-methyl-6-(1H-pyrrolo[2,3-b]-pyridin-4-yl)-5,6,7,8-tetrahydropyrido[4,3-d]-pyrimidin-4-yl)azetidin-3-yl)cyclopropane-sulfonamide] | 113 | 83 | – | – |
| C[C@@H]1Cc2ncnc(N3CCCC(C#N)C3)c2CN1c1ccnc2[nH]ccc12 (stereo partly drawn) [Example 83, 1-((R)-7-methyl-6-(1H-pyrrolo[2,3-b]pyridin-4-yl)-5,6,7,8-tetrahydro-pyrido[4,3-d]pyrimidin-4-yl)piperidine-3-carbonitrile] | 364 | 56 | – | – |
| COC(=O)[C@H]1CCCN(c2ncnc3c2CN(c2cc(Cl)nc4[nH]ccc24)[C@H](C)C3)C1 [Example 63, Methyl (S)-1-((R)-6-(6-chloro-1H-pyrrolo[2,3-b]pyridin-4-yl)-7-methyl-5,6,7,8-tetrahydropyrido-[4,3-d]pyrimidin-4-yl)-piperidine-3-carboxylate] | 86 | 57 | – | – |

More lines, main results first:

| IC50 (ATR/ATRIP complex; [2]) [nM] | IC50 [1, 3] [nM] | IC50 (ATR/ATRIP complex; estimated range, read-out: ATR/ATRIP Enzyme IC50 (estimated class)) [nM] | SMILES | IC50 ([1]; HT-29 cells) [nM] |
| --- | --- | --- | --- | --- |
| 408 | 39 | – | COC(=O)N1CCCC(c2ncnc3c2CN(c2cc(Cl)nc4[nH]ccc24)[C@H](C)C3)C1 (stereo partly drawn) [Example 10, Methyl 3-((R)-6-(6-chloro-1H-pyrrolo[2,3-b]pyridin-4-yl)-7-methyl-5,6,7,8-tetrahydro-pyrido[4,3-d]pyrimidin-4-yl)piperidine-1-carboxylate bis(trifluoroacetate)] | – |
| 237 | 20 | – | C[C@@H]1Cc2ncnc(N3CC[C@@H](S(C)(=O)=O)C3)c2CN1c1cc(Cl)nc2[nH]ccc12 [Example 87, (R)-6-(6-chloro-1H-pyrrolo[2,3-b]pyridin-4-yl)-7-methyl-4-((R)-3-(methylsulfonyl)-pyrrolidin-1-yl)-5,6,7,8-tetrahydropyrido[4,3-d]-pyrimidine] | – |
| 472 | 16 | – | C[C@@H]1Cc2ncnc(N3CCC(NS(C)(=O)=O)CC3)c2CN1c1ccnc2[nH]ccc12 [Example 64, (R)-N-(1-(7-methyl-6-(1H-pyrrolo[2,3-b]-pyridin-4-yl)-5,6,7,8-tetrahydropyrido[4,3-d]-pyrimidin-4-yl)piperidin-4-yl)methanesulfonamide] | – |
| 499 | 52 | – | C[C@@H]1Cc2ncnc(C3CCN(S(C)(=O)=O)CC3)c2CN1c1ccnc2[nH]ccc12 [Example 6, (R)-7-Methyl-4-(1-(methylsulfonyl)piperidin-4-yl)-6-(1H-pyrrolo[2,3-b]pyridin-4-yl)-5,6,7,8-tetrahydropyrido[4,3-d]pyrimidine bis(trifluoroacetate)] | – |
| 899 | 24 | – | C[C@@H]1Cc2ncnc(C3CCC(NS(C)(=O)=O)CC3)c2CN1c1cc(Cl)nc2[nH]ccc12 (stereo partly drawn) [Example 40, (R)-N-(4-(6-(6-chloro-1H-pyrrolo[2,3-b]pyridin-4-yl)-7-methyl-5,6,7,8-tetrahydropyrido[4,3-d]pyrimidin-4-yl)cyclohexyl)methane-sulfonamide] | – |
| – | 46 | 1000 to 10000 | COC(=O)NC1[C@@H]2CC[C@H]1CN(c1ncnc3c1CN(c1cc(Cl)nc4[nH]ccc14)[C@H](C)C3)C2 (stereo partly drawn) [Example 28, methyl N-{3-[(7R)-6-{6-chloro-1H-pyrrolo[2,3-b]-pyridin-4-yl}-7-methyl-5H,6H,7H,8H-pyrido[4,3-d]pyrimidin-4-yl]-3-aza-bicyclo[3.2.1]octan-8-yl}carbamate] | – |
| 899 | 28 | – | COC(=O)N1CCC(c2ncnc3c2CN(c2cc(Cl)nc4[nH]ccc24)[C@H](C)C3)CC1 [Example 25, methyl 4-[(7R)-6-{6-chloro-1H-pyrrolo[2,3-b]pyridin-4-yl}-7-methyl-5H,6H,7H,8H-pyrido [4,3-d]pyrimidin-4-yl]piperidine-1-carboxylate] | – |
